# Laboratory results as given in PMC7311426, “An amphipathic peptide with antibiotic activity against multidrug-resistant Gram-negative bacteria” (Nature Communications, 2020).
# Tested on: A. baumannii clinical isolates
# Experiment: microbe, parasite or virus in culture
# Protocol: The in vitro activity of AA139 and comparator antimicrobials was determined in two panels of clinical isolates of E. coli, K. pneumoniae, P. aeruginosa, and A. baumannii (Supplementary Table 3), and MIC90 presented. The US panel consisted of 331 clinical isolates from 2010 to 2012. It was tested by BMD in accordance with the CLSI guidelines (M07-A9, 2012)[39]. […] AA139 was diluted in 0.01% acetic acid/0.1% bovine serum albumin. Sterile polypropylene culture cluster round-bottom 96-well plates (Costar # 3879) were used for testing. The worldwide panel consisted of 445 clinical isolates from 2011 to 2013, geographically divided into Asia, Europe, North America, and Rest of World (Middle East, Latin America, Africa, and South Pacific) with each region representing ~25% of the isolates. It was tested by broth microdilution in accordance with the CLSI guidelines (M07-A9, 2012)[39]. […] The test media was CAMHB (Becton Dickinson). AA139 and polymyxin B were tested in media supplemented with 0.002% Tween 80 (Calbiochem). MIC90 values were calculated for all or subsets of the isolates. MIC correlation between AA139 and colistin was analyzed with data from the US panel.
# [1] = US isolates 2010-2012, isolate CID 1919446, Rep 1
# [2] = US isolates 2010-2012, isolate CID 1919446, Rep 2
# [3] = US isolates 2010-2012, isolate CID 1919519, Rep 1
# [4] = US isolates 2010-2012, isolate CID 1919519, Rep 2
# [5] = US isolates 2010-2012, isolate CID 1919714, Rep 1
# [6] = US isolates 2010-2012, isolate CID 1919714, Rep 2
# [7] = US isolates 2010-2012, isolate CID 1919942, Rep 1
# [8] = US isolates 2010-2012, isolate CID 1919942, Rep 2
# [9] = US isolates 2010-2012, isolate CID 1930670, Rep 1
# [10] = US isolates 2010-2012, isolate CID 1930670, Rep 2
# [11] = US isolates 2010-2012, isolate CID 1930676, Rep 1
# [12] = US isolates 2010-2012, isolate CID 1930676, Rep 2
# [13] = US isolates 2010-2012, isolate CID 2727597, Rep 1
# [14] = US isolates 2010-2012, isolate CID 2727597, Rep 2
# [15] = US isolates 2010-2012, isolate CID 2727598, Rep 1
# [16] = US isolates 2010-2012, isolate CID 2727598, Rep 2
# [17] = US isolates 2010-2012, isolate CID 2727898, Rep 1
# [18] = US isolates 2010-2012, isolate CID 2727898, Rep 2
# [19] = US isolates 2010-2012, isolate CID 2728115, Rep 1
# [20] = US isolates 2010-2012, isolate CID 2728115, Rep 2
# [21] = US isolates 2010-2012, isolate CID 2728119, Rep 1
# [22] = US isolates 2010-2012, isolate CID 2728119, Rep 2
# [23] = US isolates 2010-2012, isolate CID 2728650, Rep 1
# [24] = US isolates 2010-2012, isolate CID 2728650, Rep 2
# [25] = US isolates 2010-2012, isolate CID 2728663, Rep 1
# [26] = US isolates 2010-2012, isolate CID 2728663, Rep 2
# [27] = US isolates 2010-2012, isolate CID 2732481, Rep 1
# [28] = US isolates 2010-2012, isolate CID 2732481, Rep 2
# [29] = US isolates 2010-2012, isolate CID 2732486, Rep 1
# [30] = US isolates 2010-2012, isolate CID 2732486, Rep 2
# [31] = US isolates 2010-2012, isolate CID 2762740, Rep 1
# [32] = US isolates 2010-2012, isolate CID 2762740, Rep 2
# [33] = US isolates 2010-2012, isolate CID 2801947, Rep 1
# [34] = US isolates 2010-2012, isolate CID 2801947, Rep 2
# [35] = US isolates 2010-2012, isolate CID 2801949, Rep 1
# [36] = US isolates 2010-2012, isolate CID 2801949, Rep 2
# [37] = US isolates 2010-2012, isolate CID 2802027, Rep 1
# [38] = US isolates 2010-2012, isolate CID 2802027, Rep 2
# [39] = US isolates 2010-2012, isolate CID 2802028, Rep 1
# [40] = US isolates 2010-2012, isolate CID 2802028, Rep 2
# [41] = US isolates 2010-2012, isolate CID 2802029, Rep 1
# [42] = US isolates 2010-2012, isolate CID 2802029, Rep 2
# [43] = US isolates 2010-2012, isolate CID 2802031, Rep 1
# [44] = US isolates 2010-2012, isolate CID 2802031, Rep 2
# [45] = US isolates 2010-2012, isolate CID 2802109, Rep 2
# [46] = US isolates 2010-2012, isolate CID 2802111, Rep 2
# [47] = US isolates 2010-2012, isolate CID 2802187, Rep 1
# [48] = US isolates 2010-2012, isolate CID 2802187, Rep 2
structure (smiles),measurement,setting,value
CN(C)c1cc(NC(=O)CNC(C)(C)C)c(O)c2c1C[C@H]1C[C@H]3[C@H](N(C)C)C(O)=C(C(N)=O)C(=O)[C@@]3(O)C(O)=C1C2=O [Tig],MIC,[1],2 µg/mL
same,MIC,[2],1 µg/mL
same,MIC,[3],2 µg/mL
same,MIC,[4],2 µg/mL
same,MIC,[5],2 µg/mL
same,MIC,[6],2 µg/mL
same,MIC,[7],0.25 µg/mL
same,MIC,[8],0.5 µg/mL
same,MIC,[9],0.5 µg/mL
same,MIC,[10],1 µg/mL
same,MIC,[11],0.25 µg/mL
same,MIC,[12],0.25 µg/mL
same,MIC,[13],2 µg/mL
same,MIC,[14],2 µg/mL
same,MIC,[15],1 µg/mL
same,MIC,[16],1 µg/mL
same,MIC,[17],0.12 µg/mL
same,MIC,[18],0.12 µg/mL
same,MIC,[19],2 µg/mL
same,MIC,[20],2 µg/mL
same,MIC,[21],2 µg/mL
same,MIC,[22],2 µg/mL
same,MIC,[23],1 µg/mL
same,MIC,[24],1 µg/mL
same,MIC,[25],2 µg/mL
same,MIC,[26],1 µg/mL
same,MIC,[27],2 µg/mL
same,MIC,[28],1 µg/mL
same,MIC,[29],1 µg/mL
same,MIC,[30],1 µg/mL
same,MIC,[31],0.5 µg/mL
same,MIC,[32],8 µg/mL
same,MIC,[33],0.25 µg/mL
same,MIC,[34],0.12 µg/mL
same,MIC,[35],0.5 µg/mL
same,MIC,[36],0.25 µg/mL
same,MIC,[37],1 µg/mL
same,MIC,[38],0.5 µg/mL
same,MIC,[39],0.5 µg/mL
same,MIC,[40],0.5 µg/mL
same,MIC,[41],2 µg/mL
same,MIC,[42],2 µg/mL
same,MIC,[43],1 µg/mL
same,MIC,[44],1 µg/mL
same,MIC,[45],1 µg/mL
same,MIC,[46],2 µg/mL
same,MIC,[47],0.25 µg/mL
same,MIC,[48],0.25 µg/mL
CC(C)(O/N=C(\C(=O)N[C@@H]1C(=O)N2C(C(=O)[O-])=C(C[n+]3ccccc3)CS[C@H]12)c1csc(N)n1)C(=O)O [Ceftaz],MIC,[1],4 µg/mL
same,MIC,[2],4 µg/mL
same,MIC,[3],> 32 µg/mL
same,MIC,[4],> 32 µg/mL
same,MIC,[5],> 32 µg/mL
same,MIC,[6],> 32 µg/mL
same,MIC,[7],8 µg/mL
same,MIC,[8],4 µg/mL
same,MIC,[9],> 32 µg/mL
same,MIC,[10],> 32 µg/mL
same,MIC,[11],4 µg/mL
same,MIC,[12],4 µg/mL
same,MIC,[13],> 32 µg/mL
same,MIC,[14],> 32 µg/mL
same,MIC,[15],> 32 µg/mL
same,MIC,[16],> 32 µg/mL
same,MIC,[17],2 µg/mL
same,MIC,[18],4 µg/mL
same,MIC,[19],> 32 µg/mL
same,MIC,[20],> 32 µg/mL
same,MIC,[21],32 µg/mL
same,MIC,[22],32 µg/mL
same,MIC,[23],> 32 µg/mL
same,MIC,[24],> 32 µg/mL
same,MIC,[25],> 32 µg/mL
same,MIC,[26],> 32 µg/mL
same,MIC,[27],32 µg/mL
same,MIC,[28],32 µg/mL
same,MIC,[29],> 32 µg/mL
same,MIC,[30],32 µg/mL
same,MIC,[31],> 32 µg/mL
same,MIC,[32],> 32 µg/mL
same,MIC,[33],2 µg/mL
same,MIC,[34],2 µg/mL
same,MIC,[35],8 µg/mL
same,MIC,[36],2 µg/mL
same,MIC,[37],> 32 µg/mL
same,MIC,[38],> 32 µg/mL
same,MIC,[39],> 32 µg/mL
same,MIC,[40],> 32 µg/mL
same,MIC,[41],> 32 µg/mL
same,MIC,[42],> 32 µg/mL
same,MIC,[43],> 32 µg/mL
same,MIC,[44],> 32 µg/mL
same,MIC,[45],32 µg/mL
same,MIC,[46],8 µg/mL
same,MIC,[47],4 µg/mL
same,MIC,[48],4 µg/mL
